# Source: patent US20060079453A1, “Hla binding peptides and their uses” (priority 2002, published 2006)
# Several values for one entry are separate records, joined by “and”; a condition that tells them apart may be missing. Identical values can stand only once. Like-named read-outs stand apart in the source and are kept apart here. No end group written: not given here.
# Tests used:
# HLA-A*0101 = HLA-A*0101 (Homo sapiens, UniProt P04439, A114D/A174V/A182V/D101N/D185E/E176A/E190D/L180R/Q94H/R68K/S129P/T187R/V100A/V91M/W191G); test: biochemical; assay type: binding
# HLA-A*3002 = HLA-A*3002 (Homo sapiens, UniProt P04439, D101N/D140H/D185E/E176R/F33S/G80R/H175R/K168Q/Q94H/R138E/R41S/V100E); test: biochemical; assay type: binding
# HLA-A*2902 = HLA-A*2902 (Homo sapiens, UniProt P04439, A270S/D101N/D185E/E176V/E277Q/E87Q/F33T/G231S/H175R/I121M/I218V/I322F/K168Q/L300P/L318F/M331R/P208A/P217A/Q86L/T323A/T345S/V100A/V358M); test: MHC molecular binding / Capture assay, IC50: A*2902; details: Binding affinity to A*2902 (expressed as an IC50)
# HLA-B*1801 = HLA-B*1801 (Homo sapiens, UniProt P01889, A329T/A93T/A95T/C349S/D201E/D54G/D98Y/E176V/E187T/E204Q/E69T/K202T/Q94N/R155S/R180L/S121R/V306I/Y140S/Y195H/Y33H/Y91S); test: biochemical; assay type: binding
# HLA-B*4002 = HLA-B*4002 (Homo sapiens, UniProt P01889, A65T/A93T/A95T/D138N/D201E/D98Y/E176V/E204Q/E69K/K202T/N87E/Q56L/Q94N/R180L/S48T/Y33H/Y91S); test: biochemical; assay type: binding
# HLA-B*4402 = HLA-B*4402 (Homo sapiens, UniProt P01889, A223V/A65T/A93T/A95T/D201E/D98Y/E176V/E187L/E204Q/E69K/G107R/H137Y/K202T/L105A/L119I/N104T/N87E/Q56L/Q94N/R106L/R155S/R180D/S101N/S121R/S35A/S48T/T118I/V36M/W191S/Y140D/Y91S); test: biochemical; assay type: binding
# HLA-B*4403 = HLA-B*4403 (Homo sapiens, UniProt P01889, A223V/A65T/A93T/A95T/D201E/D98Y/E176V/E187L/E204Q/E69K/G107R/H137Y/K202T/L105A/L119I/N104T/N87E/Q56L/Q94N/R106L/R155S/R180L/S101N/S121R/S35A/S48T/T118I/V36M/W191S/Y140D/Y91S); test: biochemical; assay type: binding
# HLA-B*4501 = HLA-B*4501 (Homo sapiens, UniProt P01889, A329T/A65T/A93T/A95T/C349S/D138N/D201E/D98Y/E176V/E187L/E204Q/E69K/H137Y/K202T/L119W/N87E/Q56L/Q94N/R155S/R180D/S121R/S35A/S48T/V127L/V306I/V36M/W191S/Y140L/Y33H/Y91S); test: biochemical; assay type: binding
# HLA-B*4001 = HLA-B*4001 (Homo sapiens, UniProt P01889, A65T/A93T/A95T/D138N/D98Y/E176V/E69K/N87E/Q56L/Q94N/R180L/S121R/S35A/S48T/T167S/V36M/W171L/Y33H/Y91S); test: biochemical; assay type: binding
# [1] = Binding affinity to A*0101 (expressed as an IC50)
Compound,IC50 (HLA-A*0101; [1]),IC50 (HLA-B*1801) [nM],IC50 (HLA-B*4002) [nM],IC50 (HLA-B*4402) [nM],IC50 (HLA-B*4403) [nM],IC50 (HLA-B*4501) [nM],further results
CC(C)C[C@H](NC(=O)[C@H](C)N)C(=O)N[C@@H](Cc1ccccc1)C(=O)N[C@@H](CCC(N)=O)C(=O)N[C@@H](CCC(=O)O)C(=O)N[C@@H](Cc1ccc(O)cc1)C(=O)N[C@@H](CCC(N)=O)C(=O)N[C@@H](CS)C(=O)N[C@@H](Cc1ccc(O)cc1)C(=O)O,> 42000 nM,–,–,–,–,–,–
CC[C@H](C)[C@H](NC(=O)[C@@H](NC(=O)[C@H](CC(C)C)NC(=O)[C@H](CC(=O)O)NC(=O)[C@@H](NC(=O)[C@@H](N)Cc1ccccc1)[C@@H](C)O)[C@@H](C)O)C(=O)N[C@H](C(=O)N[C@@H](Cc1ccc(O)cc1)C(=O)O)C(C)C,16 nM and 34 nM,–,–,–,–,–,IC50 (HLA-A*3002): 39000 nM
C[C@H](NC(=O)[C@H](Cc1c[nH]c2ccccc12)NC(=O)[C@H](Cc1ccc(O)cc1)NC(=O)[C@H](CC(=O)O)NC(=O)[C@H](Cc1ccc(O)cc1)NC(=O)[C@@H](NC(=O)CN)[C@@H](C)O)C(=O)NCC(=O)N[C@@H](Cc1ccc(O)cc1)C(=O)O,141 nM,–,–,–,–,–,–
CC[C@H](C)[C@H](NC(=O)[C@H](CO)NC(=O)[C@H](Cc1c[nH]cn1)NC(=O)[C@@H](NC(=O)[C@H](CO)NC(=O)[C@@H](N)CC(C)C)C(C)C)C(=O)N[C@@H](CCC(N)=O)C(=O)N[C@@H](CC(N)=O)C(=O)N[C@@H](CC(=O)O)C(=O)N[C@@H](Cc1ccc(O)cc1)C(=O)O,279 nM,–,–,–,–,–,–
CC(C)C[C@H](NC(=O)[C@H](CC(=O)O)NC(=O)[C@H](CC(C)C)NC(=O)[C@@H](NC(=O)[C@H](Cc1ccc(O)cc1)NC(=O)[C@H](CCC(=O)O)NC(=O)[C@H](CCCCN)NC(=O)[C@H](CC(C)C)NC(=O)[C@@H](NC(=O)[C@@H]1CCCN1)[C@@H](C)O)C(C)C)C(=O)N[C@@H](Cc1ccc(O)cc1)C(=O)O,426 nM,–,–,–,–,–,IC50 (HLA-A*2902): 805 nM
AADAAAAKY,20 nM,–,–,–,–,–,–
AEDLWVTVY,–,–,–,–,–,–,IC50 (HLA-B*1801; B*1801): 354 nM; IC50 (HLA-B*4002; B*4002): 3520 nM; IC50 (HLA-B*4402; B*4402): 2330 nM; IC50 (HLA-B*4403; B*4403): 469 nM; IC50 (HLA-B*4501; B*4501): 1840 nM
AEIPKLAYF,–,–,–,–,–,–,IC50 (HLA-B*1801; B*1801): 1640 nM; IC50 (HLA-B*4001; B*4001): 57 nM; IC50 (HLA-B*4002; B*4002): 5.6 nM; IC50 (HLA-B*4402; B*4402): 229 nM; IC50 (HLA-B*4403; B*4403): 57 nM; IC50 (HLA-B*4501; B*4501): 608 nM
AEMGKFKFSY,–,–,–,–,–,–,IC50 (HLA-B*1801; B*1801): 1520 nM; IC50 (HLA-B*4002; B*4002): 622 nM; IC50 (HLA-B*4402; B*4402): 146 nM; IC50 (HLA-B*4403; B*4403): 28 nM; IC50 (HLA-B*4501; B*4501): 283 nM
AENKWVTVY,–,781,534,294,540,297,IC50 (HLA-B*4001): 11300 nM
AENLNVTVY,–,198,3540,447,358,2440,IC50 (HLA-B*4001): 564 nM
AENLWVTTY,–,28,191,37,26,48,IC50 (HLA-B*4001): 280 nM
AENLWVTVC,–,178000,1420,5590,2270,146,–
AENLWVTVE,–,> 258000,1360,8910,2570,246,IC50 (HLA-B*4001): 3890 nM
AENLWVTVM,–,508,6.1,195,35,50,IC50 (HLA-B*4001): 13 nM
AENLWVTVP,–,38400,339,7720,2470,187,IC50 (HLA-B*4001): 9710 nM
AENLWVTVQ,–,49600,85,1220,188,100,–
AENLWVTVY,–,–,–,–,–,–,IC50 (HLA-B*1801; B*1801): 51 nM and 155 nM and 122 nM; IC50 (HLA-B*4001; B*4001): 1360 nM and 1580 nM; IC50 (HLA-B*4002; B*4002): 90 nM and 547 nM; IC50 (HLA-B*4402; B*4402): 66 nM and 308 nM; IC50 (HLA-B*4403; B*4403): 43 nM and 284 nM; IC50 (HLA-B*4501; B*4501): 68 nM and 200 nM and 301 nM
AENLYVTVF,–,–,–,–,–,–,IC50 (HLA-B*4001; B*4001): 17 nM; IC50 (HLA-B*4002; B*4002): 3.1 nM; IC50 (HLA-B*4402; B*4402): 39 nM; IC50 (HLA-B*4403; B*4403): 47 nM; IC50 (HLA-B*4501; B*4501): 69 nM
AETFYVDGA,–,–,–,–,–,–,IC50 (HLA-B*1801; B*1801): > 6710 nM; IC50 (HLA-B*4001; B*4001): 21600 nM; IC50 (HLA-B*4402; B*4402): > 21200 nM; IC50 (HLA-B*4403; B*4403): 6920 nM; IC50 (HLA-B*4501; B*4501): 38 nM
AETLWVTVY,–,199,198,501,221,774,–
ATDNYYIVTY,7.4 nM and 19 nM,–,–,–,–,–,IC50 (HLA-A*3002): 65 nM
ATELHPEYY,43 nM,–,–,–,–,–,IC50 (HLA-A*3002): 1730 nM
ATSNYYIVTY,428 nM,–,–,–,–,–,–
DENLWVTVY,–,26,41100,4590,988,–,IC50 (HLA-B*4001): > 72700 nM; IC50 (HLA-B*4501; read-out: B*4501): 49000 nM
DLWYYHTQGYY,–,–,–,–,–,–,IC50 (HLA-A*0101; read-out: Binding affinity to A*0101 (expressed as an IC50)): 5880 nM
EEKPRTLHDL,–,–,–,–,–,–,IC50 (HLA-B*1801; B*1801): > 81600 nM; IC50 (HLA-B*4001; B*4001): 36200 nM; IC50 (HLA-B*4002; B*4002): 34000 nM; IC50 (HLA-B*4402; B*4402): 15200 nM; IC50 (HLA-B*4403; B*4403): 30000 nM; IC50 (HLA-B*4501; B*4501): 419 nM
ETRHYCYSLY,43 nM,–,–,–,–,–,IC50 (HLA-A*3002): 10 nM
